Results as given in patent publication US10189796B2, “[4-(1,3,3-trimethyl-2-oxo-3,4-dihydro-1H-quinoxalin-7-yl)phenoxy]ethyloxy compound or salt thereof” (SANTEN PHARMACEUTICAL CO., LTD., priority 2015, dated 2019).

Tests used:
[1] = target: Recombinant human GR (Homo sapiens (Human), UniProt P04150); test: GR competitive binding assay by fluorescence polarization; settings: 20 μM test compound solution, 10 μL/well; 2 hours; DEX positive control; read-out: GR binding rate (%)
Method in brief: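 Fluorescence polarization competition between test compound and Fluormone GS1 fluorescent glucocorticoid ligand for recombinant human GR. Buffer 10 mM potassium phosphate pH 7.4, 20 mM Na2MoO4, 0.1 mM EDTA, 5 mM DTT, 2% DMSO. 2 h dark incubation at room temperature; binding ratio (%) scaled between buffer-only and DEX controls.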

[2] = test system: IL-2 production in normal human CD4+T cell; test: IL-2 production inhibitory action evaluation test (anti-CD3/CD28 antibody stimulation, ELISA); type: cell-based; settings: anti-CD3/CD28, 24 hours, read-out: IL-2 production inhibitory ratio (% of 1 μM)
Procedure: In order to evaluate an action of the present compound as a GR agonist, IL-2 and IL-4 production inhibitory actions in a normal human CD4^+T cell after stimulation by an anti-CD3/CD28 antibody were investigated. For the measurement of the IL-2 and IL-4 production amounts, the ELISA method (manufactured by R&D Systems, Cat No. D2050, HS400) was used, and a procedure was carried out according to the protocol attached thereto. Hereinafter, the specific method will be described.
Dynabeads (Registered Trademark) Human T-Activator CD3/CD28 (4×10^7 beads/mL) (Dynabeads) was used, and prepared according to the protocol attached thereto.
After the test compound was dissolved in dimethylsulfoxide, the solution was diluted with an RPMI medium to prepare 400 μM of a test compound solution. The solution was diluted with a 4% dimethylsulfoxide-containing RPMI medium to prepare 40 μM of a test compound solution.
Used cells: normal peripheral blood human CD4^+T cell (human CD4^+T cell) (Lonza)
• 1) Frozen human CD4^+T cells were thawed in a warm water bath at 37° C., and added to an RPMI medium (RPMI 1640 containing 10% FBS, 100 U/mL of Penicillin, and […] of Streptomycin). • 2) The above suspension was recovered and centrifuged at 900 rpm for 10 minutes to give a cell sediment. • 3) The cell sediment was suspended in an RPMI medium and the operation of 2) was carried out. • 4) The cell sediment was adjusted to 4×10^5 cells/mL with an RPMI medium. • 5) The above suspension was cultured in a CO2 incubator (temperature: 37° C., CO2 concentration: 5%) for 1 hour or longer. (Test Method and Measurement Method) • 1) The cultured human CD4^+T cells were recovered and the cells were seeded in 96-well flat bottom culture plates at each 8.0×10^4 cells/0.2 mL/well. • 2) The test compound solution was added with each 5 μL/well. • 3) The prepared Dynabeads were added with each 2 μL/well. • 4) The sample in which 4% dimethylsulfoxide-containing RPMI medium was added with each 5 μL/well in place of each test compound solution, and the RPMI medium was added with each 2 μL/well in place of the Dynabeads was made a negative control. • 5) The sample in which 4% dimethylsulfoxide-containing RPMI medium was added with each 5 μL/well in place of each test compound solution was made a positive control. • 6) After completion of 24 hours cultivation, the supernatant was recovered and the amounts of IL-2 and IL-4 released in the supernatant was measured by using an ELISA Kit. • 7) The IL-2 and IL-4 production inhibitory ratios were calculated according to the following calculation formula. (Calculation of IL-2 and IL-4 Production Inhibitory Ratios)
The IL-2 and IL-4 production inhibitory ratios (%) were calculated by the following formula, respectively. IL-2 or IL-4 production inhibitory ratio (%)=100×{1−(IL-2 or IL-4 production amounts of each test compound solution−average value of IL-2 or IL-4 production amount of negative control group)/(average value of IL-2 or IL-4 production amount of positive control group−average value of IL-2 or IL-4 production amount of negative control group)}(%) (Test Result and Consideration)

Sequence of Recombinant human GR (P04150 whole entry): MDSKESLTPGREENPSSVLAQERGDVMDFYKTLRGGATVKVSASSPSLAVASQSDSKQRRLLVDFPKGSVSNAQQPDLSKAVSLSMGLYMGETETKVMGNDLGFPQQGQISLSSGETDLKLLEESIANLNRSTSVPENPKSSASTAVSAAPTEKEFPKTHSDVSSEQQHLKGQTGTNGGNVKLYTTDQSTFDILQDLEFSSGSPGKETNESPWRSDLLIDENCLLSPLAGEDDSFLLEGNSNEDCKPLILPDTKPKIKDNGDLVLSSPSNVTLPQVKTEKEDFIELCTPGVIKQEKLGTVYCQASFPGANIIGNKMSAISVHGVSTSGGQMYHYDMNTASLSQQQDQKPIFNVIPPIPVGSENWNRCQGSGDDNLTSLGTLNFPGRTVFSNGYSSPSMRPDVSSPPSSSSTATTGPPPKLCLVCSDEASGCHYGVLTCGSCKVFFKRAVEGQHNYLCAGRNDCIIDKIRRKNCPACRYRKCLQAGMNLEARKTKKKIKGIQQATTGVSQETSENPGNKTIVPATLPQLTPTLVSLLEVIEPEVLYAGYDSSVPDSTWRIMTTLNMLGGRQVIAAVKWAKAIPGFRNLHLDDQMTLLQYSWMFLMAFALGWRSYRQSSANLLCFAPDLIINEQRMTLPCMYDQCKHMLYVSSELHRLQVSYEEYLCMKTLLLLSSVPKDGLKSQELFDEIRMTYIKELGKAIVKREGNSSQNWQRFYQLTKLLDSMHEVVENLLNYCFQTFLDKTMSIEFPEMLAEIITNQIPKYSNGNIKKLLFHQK

Row | SMILES | inhibition at 10 µM [1] [%] | inhibition at 1 µM [2] [%]
1 | COc1cc(OC[C@H](C)OC(=O)CN(C)C)ccc1-c1ccc2c(c1COc1cc(F)ccc1C)N(C)C(=O)C(C)(C)N2 [Compound 11-1, (S)-7-[4-[2-(N,N-dimethylaminoacetoxy)propyl]oxy-2-methoxyphenyl]-8-(5-fluoro-2-methylphenoxymethyl)-1,3,3-trimethyl-3,4-dihydro-1H-quinoxalin-2-one] | 99 | 72
2 | COc1cc(OC[C@@H](O)CC#N)ccc1-c1ccc2c(c1COc1cc(F)ccc1C)N(C)C(=O)C(C)(C)N2 [Compound 5-2, (S)-7-[4-(3-cyano-2-hydroxypropyl)oxy-2-methoxyphenyl]-8-(5-fluoro-2-methyl-phenoxymethyl)-1,3,3-trimethyl-3,4-dihydro-1H-quinoxalin-2-one] | > 99 | –
3 | COc1cc(OC[C@@H](O)CCO)ccc1-c1ccc2c(c1COc1cc(F)ccc1C)N(C)C(=O)C(C)(C)N2 [Compound 2-1, (S)-7-[4-(2,4-dihydroxybutyl)oxy-2-methoxyphenyl]-8-(5-fluoro-2-methyl-phenoxymethyl)-1,3,3-trimethyl-3,4-dihydro-1H-quinoxalin-2-one] | > 99 | 79
4 | COc1cc(OC[C@H](C)O)ccc1-c1ccc2c(c1COc1cc(F)ccc1C)N(C)C(=O)C(C)(C)N2 [Compound 1-1, (S)-8-(5-fluoro-2-methylphenoxymethyl)-7-[4-(2-hydroxypropyl)oxy-2-methoxy-phenyl]-1,3,3-trimethyl-3,4-dihydro-1H-quinoxalin-2-one] | > 99 | 73
5 | COc1ccc(O)cc1-c1ccc2c(c1COc1cc(F)ccc1C)N(C)C(=O)C(C)(C)N2 [Control compound C, 8-(5-fluoro-2-methylphenoxymethyl)-7-(5-hydroxy-2-methoxyphenyl)-1,3,3-trimethyl-3,4-dihydro-1H-quinoxalin-2-one] | > 99 | 26
6 | COc1ccc(CO)cc1-c1ccc2c(c1COc1cc(F)ccc1C)N(C)C(=O)C(C)(C)N2 [Control compound B, 8-(5-fluoro-2-methylphenoxymethyl)-7-(5-hydroxymethyl-2-methoxyphenyl)-1,3,3-trimethyl-3,4-dihydro-1H-quinoxalin-2-one, reference compound] | > 99 | 35

Now from value to compound, other results behind:

Row | inhibition at 10 µM [1] [%] | SMILES | inhibition at 1 µM [2] [%]
7 | 94 | COCOc1ccc(-c2ccc3c(c2COc2cc(F)ccc2C)N(C)C(=O)C(C)(C)N3)c(OC)c1 [Control compound F, 8-(5-fluoro-2-methylphenoxymethyl)-7-(2-methoxy-4-methoxymethoxyphenyl)-1,3,3-trimethyl-3,4-dihydro-1H-quinoxalin-2-one, reference compound] | < 0
8 | 98 | CCCC(=O)Oc1ccc(-c2ccc3c(c2COc2cc(F)ccc2C)N(C)C(=O)C(C)(C)N3)c(OC)c1 [Control compound D, 7-(4-butyryloxy-2-methoxyphenyl)-8-(5-fluoro-2-methylphenoxymethyl)-1,3,3-trimethyl-3,4-dihydro-1H-quinoxalin-2-one, reference compound] | < 0
9 | 98 | COc1ccc(-c2ccc3c(c2COc2cc(F)ccc2C)N(C)C(=O)C(C)(C)N3)c(OC)c1 [Control compound E, 7-(2,4-dimethoxyphenyl)-8-(5-fluoro-2-methyl-phenoxymethyl)-1,3,3-trimethyl-3,4-dihydro-1H-quinoxalin-2-one, reference compound] | < 0
